# Data as given in ChEMBL document CHEMBL4118132, “Novel 5-methyl-2-phenylphenanthridium derivatives as FtsZ-targeting antibacterial agents from structural simplification of natural product sanguinarine” (2018).
# Assays:
# Type in all cases: functional
# [1] = test system: Staphylococcus epidermidis; experiment: Antibacterial activity against penicillin-resistant Staphylococcus epidermidis clinical isolate after 24 hrs by broth microdilution method
# [2] = test system: Escherichia coli; experiment: Antibacterial activity against penicillin-susceptible Escherichia coli ATCC 25922 after 24 hrs by broth microdilution method; conditions: ATCC 25922, 24 h
# [3] = test system: Streptococcus pyogenes; experiment: Antibacterial activity against penicillin-resistant Streptococcus pyogenes after 24 hrs by broth microdilution method
# [4] = test system: Staphylococcus aureus; experiment: Antibacterial activity against methicillin-resistant Staphylococcus aureus ATCC 43300 after 24 hrs by broth microdilution method; conditions: ATCC 43300, 24 h
# [5] = test system: Bacillus subtilis; experiment: Antibacterial activity against penicillin-susceptible Bacillus subtilis ATCC 9372 after 24 hrs by broth microdilution method; conditions: ATCC 9372, 24 h
# [6] = test system: Pseudomonas aeruginosa; experiment: Antibacterial activity against penicillin-susceptible Pseudomonas aeruginosa ATCC 27853 after 24 hrs by broth microdilution method; conditions: ATCC 27853, 24 h
# [7] = test system: Staphylococcus aureus; experiment: Bactericidal activity against penicillin-susceptible Staphylococcus aureus ATCC 25923 after 24 hrs by flat colony counting method; conditions: ATCC 25923, 24 h
# [8] = test system: Streptococcus pyogenes; experiment: Antibacterial activity against penicillin-susceptible Streptococcus pyogenes after 24 hrs by broth microdilution method
# [9] = test system: Staphylococcus aureus; experiment: Antibacterial activity against penicillin-resistant Staphylococcus aureus clinical isolate after 24 hrs by broth microdilution method
# [10] = test system: Bacillus pumilus; experiment: Antibacterial activity against penicillin-susceptible Bacillus pumilus ATCC 63202 after 24 hrs by broth microdilution method; conditions: ATCC 63202, 24 h
# [11] = test system: Staphylococcus aureus; experiment: Antibacterial activity against penicillin-susceptible Staphylococcus aureus ATCC 25923 after 24 hrs by broth microdilution method; conditions: ATCC 25923, 24 h
# [12] = test system: Staphylococcus aureus; experiment: Potency index, ratio of ciprofloxacin MIC to test compound MIC for methicillin-resistant Staphylococcus aureus ATCC 43300
# [13] = test system: Staphylococcus aureus; experiment: Potency index, ratio of oxacillin sodium MIC to test compound MIC for penicillin-susceptible Staphylococcus aureus ATCC 25923
# [14] = test system: Staphylococcus aureus; experiment: Potency index, ratio of oxacillin sodium MIC to test compound MIC for methicillin-resistant Staphylococcus aureus ATCC 43300
# [15] = test system: Staphylococcus aureus; experiment: Potency index, ratio of ciprofloxacin MIC to test compound MIC for penicillin-susceptible Staphylococcus aureus ATCC 25923
# [16] = test system: Staphylococcus aureus; experiment: Potency index, ratio of oxacillin sodium MIC to test compound MIC for penicillin-resistant Staphylococcus aureus clinical isolate
# [17] = test system: Staphylococcus aureus; experiment: Potency index, ratio of ciprofloxacin MIC to test compound MIC for penicillin-resistant Staphylococcus aureus clinical isolate
SMILES,MIC [1],MIC [2],MIC [3],MIC [4],MIC [5],MIC [6],MBC [7],MIC [8],MIC [9],MIC [10],MIC [11],Ratio [12],Ratio [13],Ratio [14],Ratio [15],Ratio [16],Ratio [17]
Cc1ccc(-c2ccc3c(c2)c2ccccc2c[n+]3C)cc1.[Cl-],32 µg/mL,> 64 µg/mL,16 µg/mL,16 µg/mL,2 µg/mL,> 64 µg/mL,> 64 µg/mL,4 µg/mL,16 µg/mL,8 µg/mL,8 µg/mL,–,–,–,–,–,–
Cc1ccc(-c2cc(C)c3c(c2)c2ccccc2c[n+]3C)cc1.[Cl-],2 µg/mL,> 64 µg/mL,4 µg/mL,2 µg/mL,0.5 µg/mL,> 64 µg/mL,32 µg/mL,4 µg/mL,1 µg/mL,2 µg/mL,0.5 µg/mL,4 - 164,4 - 67,16 - 256,8 - 133,16 - 256,4 - 64
C[n+]1cc2ccccc2c2cc(-c3ccccc3C(F)(F)F)ccc21.[Cl-],32 µg/mL,> 64 µg/mL,32 µg/mL,32 µg/mL,32 µg/mL,> 64 µg/mL,> 64 µg/mL,64 µg/mL,32 µg/mL,32 µg/mL,16 µg/mL,–,–,–,–,–,–
COc1ccc(-c2cc(C)c3c(c2)c2ccccc2c[n+]3C)cc1.[Cl-],2 µg/mL,> 64 µg/mL,8 µg/mL,4 µg/mL,2 µg/mL,> 64 µg/mL,> 64 µg/mL,8 µg/mL,4 µg/mL,4 µg/mL,0.5 µg/mL,4 - 164,4 - 67,16 - 256,8 - 133,16 - 256,4 - 64
COc1cc(-c2ccccc2)cc2c3ccccc3c[n+](C)c12.[Cl-],4 µg/mL,> 64 µg/mL,8 µg/mL,8 µg/mL,1 µg/mL,> 64 µg/mL,> 64 µg/mL,2 µg/mL,64 µg/mL,4 µg/mL,16 µg/mL,–,–,–,–,–,–
C[n+]1cc2ccccc2c2cc(-c3cccc(C(F)(F)F)c3)ccc21.[Cl-],8 µg/mL,> 64 µg/mL,8 µg/mL,16 µg/mL,16 µg/mL,> 64 µg/mL,> 64 µg/mL,16 µg/mL,16 µg/mL,16 µg/mL,8 µg/mL,–,–,–,–,–,–
C[n+]1cc2ccccc2c2cc(-c3ccc(C(F)(F)F)cc3)ccc21.[Cl-],> 64 µg/mL,> 64 µg/mL,16 µg/mL,16 µg/mL,4 µg/mL,> 64 µg/mL,> 64 µg/mL,2 µg/mL,16 µg/mL,8 µg/mL,8 µg/mL,–,–,–,–,–,–
COc1cc(/C=C/C(=O)CC(=O)/C=C/c2ccc(O)c(OC)c2)ccc1O [CURCUMIN],> 64 µg/mL,> 64 µg/mL,–,64 µg/mL,32 µg/mL,> 64 µg/mL,–,> 64 µg/mL,> 64 µg/mL,32 µg/mL,32 µg/mL,–,–,–,–,–,–
COc1cc(-c2ccc(C(F)(F)F)cc2)cc2c3ccccc3c[n+](C)c12.[Cl-],8 µg/mL,> 64 µg/mL,8 µg/mL,4 µg/mL,1 µg/mL,> 64 µg/mL,32 µg/mL,0.5 µg/mL,8 µg/mL,2 µg/mL,2 µg/mL,–,–,–,–,–,–
COc1cc(-c2cccc(C(F)(F)F)c2)cc2c3ccccc3c[n+](C)c12.[Cl-],4 µg/mL,> 64 µg/mL,8 µg/mL,8 µg/mL,4 µg/mL,> 64 µg/mL,32 µg/mL,4 µg/mL,8 µg/mL,4 µg/mL,2 µg/mL,–,–,–,–,–,–
COc1cc(-c2ccc(OC(F)(F)F)cc2)cc2c3ccccc3c[n+](C)c12.[Cl-],16 µg/mL,> 64 µg/mL,16 µg/mL,4 µg/mL,4 µg/mL,> 64 µg/mL,32 µg/mL,2 µg/mL,8 µg/mL,2 µg/mL,1 µg/mL,–,–,–,–,–,–
Cc1cc(-c2ccc(OC(F)(F)F)cc2)cc2c3ccccc3c[n+](C)c12.[Cl-],0.25 µg/mL,> 64 µg/mL,4 µg/mL,0.25 µg/mL,0.125 µg/mL,> 64 µg/mL,16 µg/mL,2 µg/mL,1 µg/mL,0.125 µg/mL,0.06 µg/mL,64,67,256,133,16 - 256,4 - 64
COc1cc(-c2ccc(-c3ccccc3)cc2)cc2c3ccccc3c[n+](C)c12.[Cl-],8 µg/mL,> 64 µg/mL,16 µg/mL,4 µg/mL,2 µg/mL,> 64 µg/mL,16 µg/mL,1 µg/mL,4 µg/mL,2 µg/mL,1 µg/mL,–,–,–,–,–,–
Cc1cc(-c2ccccc2)cc2c3ccccc3c[n+](C)c12.[Cl-],4 µg/mL,> 64 µg/mL,2 µg/mL,2 µg/mL,1 µg/mL,> 64 µg/mL,32 µg/mL,2 µg/mL,2 µg/mL,4 µg/mL,1 µg/mL,4 - 164,4 - 67,16 - 256,8 - 133,16 - 256,4 - 64
C[n+]1cc2ccccc2c2cc(-c3ccccc3)ccc21.[Cl-],16 µg/mL,> 64 µg/mL,16 µg/mL,16 µg/mL,4 µg/mL,> 64 µg/mL,> 64 µg/mL,4 µg/mL,64 µg/mL,16 µg/mL,32 µg/mL,–,–,–,–,–,–
COc1ccc(-c2cc(OC)c3c(c2)c2ccccc2c[n+]3C)cc1.[Cl-],16 µg/mL,> 64 µg/mL,8 µg/mL,32 µg/mL,2 µg/mL,> 64 µg/mL,> 64 µg/mL,4 µg/mL,64 µg/mL,8 µg/mL,16 µg/mL,–,–,–,–,–,–
Cc1onc(-c2ccccc2)c1C(=O)N[C@@H]1C(=O)N2[C@@H]1SC(C)(C)[C@@H]2C(=O)[O-].[Na+],> 64 µg/mL,> 64 µg/mL,> 64 µg/mL,> 64 µg/mL,4 µg/mL,> 64 µg/mL,–,1 µg/mL,> 64 µg/mL,32 µg/mL,4 µg/mL,–,–,–,–,–,–
C[n+]1cc2ccccc2c2cc(-c3ccc(-c4ccccc4)cc3)ccc21.[Cl-],> 64 µg/mL,> 64 µg/mL,64 µg/mL,64 µg/mL,8 µg/mL,> 64 µg/mL,> 64 µg/mL,2 µg/mL,8 µg/mL,16 µg/mL,8 µg/mL,–,–,–,–,–,–
COc1cc(-c2ccccc2C(F)(F)F)cc2c3ccccc3c[n+](C)c12.[Cl-],16 µg/mL,> 64 µg/mL,16 µg/mL,16 µg/mL,16 µg/mL,> 64 µg/mL,> 64 µg/mL,16 µg/mL,16 µg/mL,16 µg/mL,8 µg/mL,–,–,–,–,–,–
C[n+]1cc2ccccc2c2cc(-c3ccc(OC(F)(F)F)cc3)ccc21.[Cl-],16 µg/mL,> 64 µg/mL,32 µg/mL,64 µg/mL,2 µg/mL,> 64 µg/mL,64 µg/mL,4 µg/mL,64 µg/mL,8 µg/mL,4 µg/mL,–,–,–,–,–,–
COc1ccc(-c2ccc3c(c2)c2ccccc2c[n+]3C)cc1.[Cl-],64 µg/mL,> 64 µg/mL,16 µg/mL,64 µg/mL,4 µg/mL,> 64 µg/mL,> 64 µg/mL,4 µg/mL,64 µg/mL,16 µg/mL,4 µg/mL,–,–,–,–,–,–
Cc1cc(-c2ccccc2C(F)(F)F)cc2c3ccccc3c[n+](C)c12.[Cl-],0.5 µg/mL,> 64 µg/mL,2 µg/mL,1 µg/mL,0.5 µg/mL,> 64 µg/mL,32 µg/mL,2 µg/mL,1 µg/mL,2 µg/mL,0.5 µg/mL,4 - 164,4 - 67,16 - 256,8 - 133,16 - 256,4 - 64
COc1cc(-c2ccc(C)cc2)cc2c3ccccc3c[n+](C)c12.[Cl-],16 µg/mL,> 64 µg/mL,8 µg/mL,4 µg/mL,0.5 µg/mL,> 64 µg/mL,64 µg/mL,2 µg/mL,16 µg/mL,2 µg/mL,4 µg/mL,–,–,–,–,–,–
